From patent EP4711366A1, “PYRIMIDO MACROHETEROCYCLIC COMPOUND AS WEE1-YES DUAL-TARGET INHIBITOR AND USE THEREOF” (Mindrank AI Ltd., priority 2023, dated 2024)

Assays:
Wee1 kinase = Wee1 kinase (Homo sapiens, UniProt P30291); test: WEE1 protein kinase inhibitory activity assay (ADP-GLO luminescence); format: biochemical; details: for IC50: Wee1 10 ng/well, ATP 10 µM, 3 h, 37 °C
Procedure: The influence of the compound MRANK-106 of the present disclosure on the kinase activity of Weel was assessed using an in vitro kinase reaction system.
Table 2-1. Information about reagents and consumables
① 1× kinase buffer: A 5× kinase buffer was diluted with ddH2O to make a 1× kinase buffer. Table 2-3. The reagent components added to the 1× kinase buffer
③ 5× enzyme working solution: The optimization of the enzyme concentration had been completed in previous work, and the concentration of the reagent used in the screening is shown in Table 2-4. A 5× enzyme working solution of the enzyme was formulated using the 1× kinase buffer.
④ Compound formulation: A 10 mM mother liquor was formulated using DMSO, aliquoted, and then stored at -20 °C. Immediately before use, the mother liquor was thawed, diluted with DMSO to 1 mM, serially diluted 4-fold to 10 concentration points, and then 40-fold diluted with the 1× kinase buffer to give a 2.5× working solution. Table 2-4. The experimental conditions for the kinase activity assay
After the above reagents were formulated and equilibrated to room temperature, 4 µL of the diluted solution of the compound to be tested and 2 µL of the formulated enzyme solution were added to reaction wells. After shaking and centrifugation, the plate was incubated at room temperature for 15 min, and 4 µL of the ATP solution was then added to start a kinase reaction. After 3 h of reaction at 37 °C, 10 µL of an ADP-GLO reagent was added. After thorough mixing, the mixture was left to react at room temperature for 40 min, and 20 µL of a detection reagent was then added. After 30 min of reaction at room temperature, the luminescence signals were detected using a SpectraMax L instrument. Two independent duplicate assays were performed. The inhibition rate of each well was calculated based on all activity wells and background signal wells, with an average calculated for duplicate wells. Meanwhile, the inhibition rate was plotted using the professional graphing and analysis software PRISM 9.0, and the IC50 was calculated.
The inhibition rates of the compounds to be tested against the kinase activity of Wee1 were calculated using the following formula: Inhibition rate% = (Lumvehicle−Lumcompound)/(Lumvehicle−Lumblank) × 100% [formula] • Lumcompound: the luminescence of the sample treatment groups • Lumvehicle: the luminescence of the solvent control group • Lumblank: the luminescence of the blank group

YES1 kinase = YES1 kinase (Homo sapiens, UniProt P07947); test: YES1 protein kinase inhibitory activity assay (HTRF); format: biochemical; details: for IC50: HTRF, YES1 kinase, ATP 10 µM
Procedure: In this experiment, the capability of the compound MRANK-106 of the present disclosure to inhibit kinase activity was assessed by an HTRF method using a drug screening system based on the YES1 kinase.
Table 3-1. Information about reagents and consumables
The enzymatic activity conditions and HTRF system formulation are shown in Table 3-3; the experimental conditions for the kinase activity assay are shown in Table 3-4. Table 3-3. HTRF system formulation
Table 3-4. The experimental conditions for the kinase activity assay
The test compound MRANK-106 was dissolved in DMSO, and the solution was vortexed and shaken for thorough mixing. The solution was serially diluted 3-fold with DMSO, with the initial concentration being 503 nM.
① A 2× ATP/substrate solution and a 2× kinase solution were formulated using a kinase reaction buffer.
② 50 nL of the compound dilution was transferred to a 384 detection plate using Echo 655. After centrifugation, 2.5 µL of a 2× kinase solution was added to the 384 detection plate. The plate was centrifuged at 1000 rpm for 1 min and incubated at 25 °C for 10 min.
② 2.5 µL of the 2× substrate and ATP solution was added to the 384 detection plate, and the plate was centrifuged at 1000 rpm for 1 min and incubated at 25 °C for 60 min.
④ A 2× XL665 and antibody detection reagent was formulated using a detection buffer.
⑤ 5 µL of a kinase detection reagent was added to the detection plate, and the plate was incubated at 25 °C. The plate was centrifuged at 1000 rpm for 1 min and incubated at 25 °C for 1 h.
⑥ The fluorescence signals at 620 nm (Cryptate) and 665 nm (XL665) were read using a BMG high-throughput drug-screening multi-mode microplate reader.
With the reading of the negative control set as an inhibition rate of 0% and the reading of the positive control set as an inhibition rate of 100%, the inhibition rate of each test solution was calculated using the following formula: [formula] • Datapositive control: the average of the positive control well values • Datanegative control : the average of the negative control well values
The IC50 (half maximal inhibitory concentration) of the compound was obtained using the following nonlinear fitting formulas: Y = Bottom + (Top−Bottom)/(1+10^(∧)((LogIC50−X)*HillSlope)) [formula] • X: the log value of the compound concentration • Y: the inhibition rate (% inh) of the compound
The Z' factor calculation equation: Z′ = 1−3(SDmin+SDmax)/(AVEmax−AVEmin) [formula] where: • Min is the positive control Data value, and Max is the negative control DMSO Data value; • SD stands for standard deviation, and AVE stands for average.

[1] = tested on: A427 human lung cancer cells; test: In vivo efficacy study against A427 tumors (subcutaneous tumor-bearing model); design: species or system BALB/c nude mice; details: for Relative tumor inhibition rate (%) Day 28 / Relative tumor volume Day 28: PO
Description: A427 human lung cancer cells were subcultured and expanded in an MEM culture medium containing 10% FBS. BALB/c nude mice aged 6-8 weeks were taken and each subcutaneously injected with 5 × 10^6 cells to establish a tumor-bearing model. The tumor volume was monitored, and when the tumor volume reached about 150 mm^3, the animals were randomized into 5 groups according to body weight and tumor volume. The animals were given, by oral gavage, the vehicle or compounds to be tested (ZN-c3 and IE) once daily for a total of 28 days. During the period of administration, the tumor volume and the animal body weight were measured twice a week, and the animals' states were observed daily. At the endpoint, the animals were euthanized with carbon dioxide, and the subcutaneous tumors were isolated and weighed.
The data calculation formulae are shown below: The tumor volume (TV) was calculated using the formula 1/2×axb^2, where a and b represent the length and width measurements of the tumor, respectively.
The tumor growth inhibition rate (%TGITV) was calculated using the formula (1 - TVT/TVC) × 100%, where TVc represents the average tumor volume of the negative control group, and TVT represents the average tumor volume of the treatment group.
The relative tumor volume (RTV) was calculated using the formula Vt/V0, where V0 represents the tumor volume at the time of grouping, and Vt represents the tumor volume at each measurement.

[2] = summary statement on the assay results

Wee1 kinase, sequence (P30291 whole entry): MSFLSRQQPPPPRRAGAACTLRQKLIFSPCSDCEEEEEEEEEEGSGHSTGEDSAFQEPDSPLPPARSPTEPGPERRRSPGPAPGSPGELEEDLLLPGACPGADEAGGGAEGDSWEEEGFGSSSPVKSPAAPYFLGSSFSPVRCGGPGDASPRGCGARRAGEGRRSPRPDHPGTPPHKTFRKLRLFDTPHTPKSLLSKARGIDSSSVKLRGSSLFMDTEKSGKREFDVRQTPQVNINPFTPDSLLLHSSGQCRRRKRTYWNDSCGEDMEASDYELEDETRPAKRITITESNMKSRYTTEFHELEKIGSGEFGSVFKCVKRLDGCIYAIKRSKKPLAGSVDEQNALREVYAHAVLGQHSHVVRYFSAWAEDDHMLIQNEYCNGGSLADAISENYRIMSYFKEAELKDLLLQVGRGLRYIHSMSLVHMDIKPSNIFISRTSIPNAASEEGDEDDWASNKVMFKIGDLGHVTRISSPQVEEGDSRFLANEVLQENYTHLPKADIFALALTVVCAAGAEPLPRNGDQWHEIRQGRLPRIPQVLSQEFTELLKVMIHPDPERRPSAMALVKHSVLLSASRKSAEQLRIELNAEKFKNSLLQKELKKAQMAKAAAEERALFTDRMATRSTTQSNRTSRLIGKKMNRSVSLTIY
YES1 kinase, sequence (P07947 whole entry): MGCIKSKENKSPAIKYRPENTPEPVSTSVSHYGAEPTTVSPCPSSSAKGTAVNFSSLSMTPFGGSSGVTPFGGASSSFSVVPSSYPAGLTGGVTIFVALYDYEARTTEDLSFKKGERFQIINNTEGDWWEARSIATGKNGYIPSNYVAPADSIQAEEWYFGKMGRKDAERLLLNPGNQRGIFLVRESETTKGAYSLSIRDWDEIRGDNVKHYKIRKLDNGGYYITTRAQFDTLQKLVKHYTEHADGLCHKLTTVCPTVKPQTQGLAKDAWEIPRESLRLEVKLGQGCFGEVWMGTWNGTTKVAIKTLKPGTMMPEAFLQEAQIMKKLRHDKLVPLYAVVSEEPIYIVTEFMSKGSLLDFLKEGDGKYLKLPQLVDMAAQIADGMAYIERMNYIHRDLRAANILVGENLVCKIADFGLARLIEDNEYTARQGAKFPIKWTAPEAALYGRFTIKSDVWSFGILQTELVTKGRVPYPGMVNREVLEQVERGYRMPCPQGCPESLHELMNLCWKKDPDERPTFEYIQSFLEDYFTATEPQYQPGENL

Structure (SMILES) | IC50 (Wee1 kinase) | inhibition of the Weel target (in words) (Wee1 kinase; [2]) | IC50 (YES1 kinase) | inhibition of the Yes target (in words) (YES1 kinase; [2]) | Relative tumor inhibition rate (%) Day 28 ([1]; 30mg/kg, QD×28) | Relative tumor volume Day 28 ([1]; 30mg/kg, QD×28) | Relative tumor inhibition rate (%) Day 28 ([1]; 80/60 mg/kg, QD × 28) | Relative tumor volume Day 28 ([1]; 80/60 mg/kg, QD × 28) | activity in inhibiting tumor growth in the A427 tumor model compared with ZN-c3 ([1]; comparison in words) | Relative tumor inhibition rate (%) Day 28 ([1]; 80mg/kg, QD×28) | Relative tumor volume Day 28 ([1]; 80mg/kg, QD×28)
Cc1cc(Nc2ncc3c(=O)n4n(c3n2)-c2cccc(n2)[C@](C)(O)CCC=CC4)ccc1OC1CCN(C)CC1 (stereo in doubt) [Compound IE, (R,Z)-12-hydroxy-12-methyl-2-((3-methyl-4-((1-methylpiperidin-4-yl)oxy)phenyl)amino)-7,10,11,12-tetrahydro-5H-13,17-(azeno)pyrimido[4',5':3,4]pyrazolo[1,2-a] [1,2]diazacyclotridecin-5-one] | 7.8 nM | strongly inhibited | 3.05 nM | strongly inhibited | 60.81% | 2.41 | 99.75% | 0.02 | higher activity than the reference molecule ZN-c3 |  | 
C=CCn1c(=O)c2cnc(Nc3ccc(N4CCN(C)CC4)cc3)nc2n1-c1ccc2c(n1)C(O)(CC)CC2 (stereo not drawn) [ZN-c3, reference compound] | 5.6 nM |  | > 500 nM |  | 16.17% | 5.03 |  |  |  | 48.93% | 3.12
